Experimental data taken from patent US20260364184A1, “COMPOUND BASED ON OXOISOINDOLINYL-SUBSTITUTED TETRAHYDROPYRIMIDINE-DIONE AND USE THEREOF” (GLUETACS THERAPEUTICS (SHANGHAI) CO., LTD., priority 2023, published 2026).

How the values were obtained:
Type in all cases: cell-based
[1] = tested on: Human Acute T Lymphoblastic Leukemia Cells (Molt-4); experiment: Inhibition of Molt-4 cell proliferation (CellTiter luminescent viability); conditions: Homo sapiens, MOLT-4, 96 h, Table IA2, IRAK4 inhibitor-based, 96 hours; for inhibition at 0.01 µM: Molt-4, 10 nM, read-out: Inhibition Rate at 10 nM (%); for inhibition at 0.5 µM: Molt-4, 500 nM, read-out: Inhibition Rate at 500 nM (%)
Description: (§1) The tumor cells used herein were cultured in a cell culture medium listed in table 3 at 37 °C in an incubator with 5% CO2. Prior to experimentation, all cell lines used were correctly identified by STR profiling, and tested negative for mycoplasma contamination using a mycoplasma detection kit through routine screenings.
(§2) The IC50 values of the compounds of the present disclosure (including the compounds in Table 1, Table 2, and Examples 1-468) were determined using the CellTiter-Meiluncell Luminescent Cell Viability Assay Kit from Dalian Meilun Biotech Co., Ltd. The detailed procedure is as follows: Tumor cells were seeded in 96-well cell culture plates at the densities specified in Table 4. On the following day, the test compounds of the present disclosure were subjected to serial dilution. The dilution can be performed according to one of the following two methods: • (1) The first dilution method: The test compounds of the present disclosure (including the compounds in Table 1, Table 2, and Examples 1-468) were subjected to 5-fold serial dilutions starting from a highest concentration of 2000 μM, resulting in a total of 9 concentrations from high to low (2000, 400, 80, 16, 3.2, 0.64, 0.128, 0.0256, 0.00512 μM). Subsequently, 0.5 μL of the test compound dilution was transferred into the 96-well plate containing the cells, with each well containing 100 μL of cell culture medium. […] Into the 96-well plate, the diluted test compounds and corresponding detection reagents were added, resulting in final test compound concentrations of 500 nM and 10 nM, respectively. The experimental procedure is described below using the diluted 2 μM test compound as an example.
(§3) 0.5 μL of the aforementioned diluted compound of the present disclosure (including the compounds in Table 1, Table 2, and Examples 1-468) was added to the seeded cells in 100 μL of medium, yielding a final test compound concentration of 10 nM. After the cells were treated with the compounds of the present disclosure for a specified period, the cell viability assay reagent was added to the culture medium according to the kit's instructions to determine cell viability. […] All controls were treated using the same procedure as the compounds of the present disclosure. The growth inhibition curves for the compounds of the present disclosure were plotted using Prism GraphPad software, and the IC50 values were calculated therefrom.

IRAK4 = biological target: T1, IRAK4 (Homo sapiens, UniProt Q9NWZ3); experiment: Western blot degradation of IRAK4; conditions: hPBMC Cell; 24 hours
T1 construct: expression of target proteins in cells; endogenous in cells
T1 sequence (Q9NWZ3 1-460): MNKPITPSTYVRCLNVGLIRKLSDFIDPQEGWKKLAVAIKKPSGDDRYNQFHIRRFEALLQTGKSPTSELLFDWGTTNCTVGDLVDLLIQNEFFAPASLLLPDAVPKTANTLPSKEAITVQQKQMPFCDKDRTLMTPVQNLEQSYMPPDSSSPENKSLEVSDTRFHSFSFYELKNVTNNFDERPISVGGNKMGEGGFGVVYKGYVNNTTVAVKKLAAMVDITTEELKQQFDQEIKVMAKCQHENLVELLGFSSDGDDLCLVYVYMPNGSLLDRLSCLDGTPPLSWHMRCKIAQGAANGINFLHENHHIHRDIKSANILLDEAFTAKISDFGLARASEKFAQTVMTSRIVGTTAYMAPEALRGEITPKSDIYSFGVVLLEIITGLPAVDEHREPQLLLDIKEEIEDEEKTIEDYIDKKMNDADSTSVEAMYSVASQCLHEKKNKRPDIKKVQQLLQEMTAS
Method in brief: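 Cells treated with compound, lysed, and target protein detected by Western blot (SDS-PAGE, nitrocellulose transfer). DC50 taken as the concentration giving band grayscale half that of DMSO control, estimated by concentration-response fitting; remaining protein (%) from target band normalised to internal control band; degradation (%) = 1 − remaining.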

[2] = tested on: Human myeloid monocytic leukemia cell line (MV-4-11); experiment: Inhibition of MV-4-11 cell proliferation (CellTiter luminescent viability); conditions: Homo sapiens, MV4-11, Table IA3, IRAK4 inhibitor-based, 96 hours; for inhibition at 0.01 µM: MV-4-11, 10 nM, read-out: Inhibition Rate at 10 nM (%); for inhibition at 0.5 µM: MV-4-11, 500 nM, read-out: Inhibition Rate at 500 nM (%)
Description: as §1, §2, §3

[3] = tested on: Human Multiple myeloma cell line (MM.1S); experiment: Inhibition of MM.1S cell proliferation (CellTiter luminescent viability); conditions: Table IA1, IRAK4 inhibitor-based, 96 hours, read-out: Inhibitory activity (IC50, nM) on tumor cell proliferation, MM.1S
Description: as §1, §2, §3

| Degradation of substrate protein IRAK4 (substrate protein remaining %) (IRAK4) | IC50 [3] [nM] | Structure (SMILES) | inhibition at 0.01 µM [1] [%] | inhibition at 0.5 µM [1] [%] | inhibition at 0.01 µM [2] [%] | inhibition at 0.5 µM [2] [%] |
| --- | --- | --- | --- | --- | --- | --- |
| A (0%≤substrate protein remaining %≤80%) | – | COc1cc2nn([C@H]3CC[C@H](CN4CCN(c5cc6c(cc5F)C(=O)N(N5CCC(=O)NC5=O)C6=O)CC4)CC3)cc2cc1NC(=O)c1cccc(C(F)(F)F)c1 [GT-08664, N-(2-((1r,4r)-4-((4-(2-(2,4-dioxotetrahydropyrimidin-1(2H)-yl)-6-fluoro-1,3-dioxoisoindolin-5-yl)piperazin-1-yl)methyl)cyclohexyl)-6-methoxy-2H-indazol-5-yl)-3-(trifluoromethyl)benzamide] | 20 to 40 | 15 to 20 | – | – |
| A (0%≤substrate protein remaining %≤80%) | – | COc1cc2nn([C@H]3CC[C@H](CN4C[C@@H]5C[C@H]4CN5c4ccc5c(c4)C(=O)N(N4CCC(=O)NC4=O)C5=O)CC3)cc2cc1NC(=O)c1cccc(C(F)(F)F)n1 [GT-08648, N-(2-((1S,4r)-4-(((1S,4S)-5-(2-(2,4-dioxotetrahydropyrimidin-1(2H)-yl)-1,3-dioxoisoindolin-5-yl)-2,5-diazabicyclo[2.2.1]heptan-2-yl)methyl)cyclohexyl)-6-methoxy-2H-indazol-5-yl)-6-(trifluoromethyl) picolinamide] | 15 to 20 | 15 to 20 | – | – |
| A (0%≤substrate protein remaining %≤80%) | – | O=C1CCN(N2C(=O)c3ccc(N4C[C@H]5C[C@@H]4CN5C[C@H]4CC[C@H](n5cc(NC(=O)c6cnn7ccc(N8C[C@H]9C[C@@H]8CO9)nc67)c(C(F)F)n5)CC4)cc3C2=O)C(=O)N1 [GT-05238, 5-((1R,4R)-2-oxa-5-azabicyclo[2.2.1]heptan-5-yl)-N-(3-(difluoromethyl)-1-((1R,4R)-4-(((1R,4R)-5-(2-(2,4-dioxotetrahydropyrimidin-1(2H)-yl)-1,3-dioxoisoindolin-5-yl)-2,5-diazabicyclo[2.2.1]heptan-2-yl)methyl)cyclohexyl)-1H-pyrazol-4-yl)pyrazolo[1,5-a]pyrimidine-3-carboxamide] | – | – | 20 to 36 | 60 to 80 |
| A (0%≤substrate protein remaining %≤80%) | – | COc1cc2nn([C@H]3CC[C@H](CN4CCN(c5cc6c(cc5F)C(=O)N(N5CCC(=O)NC5=O)C6=O)CC4)CC3)cc2cc1NC(=O)c1cccc(C(F)(F)F)n1 [GT-08651, N-(2-((1r,4r)-4-((4-(2-(2,4-dioxotetrahydropyrimidin-1(2H)-yl)-6-fluoro-1,3-dioxoisoindolin-5-yl)piperazin-1-yl)methyl)cyclohexyl)-6-methoxy-2H-indazol-5-yl)-6-(trifluoromethyl) picolinamide] | 15 to 20 | 10 to 15 | – | – |
| A (0%≤substrate protein remaining %≤80%) | 500 to 1000 | O=C1CCN(N2C(=O)c3ccc(N4CCC(CN5CCC(n6cc(NC(=O)c7coc(-c8ccnc(NCC9CC9)c8)n7)c(C(F)F)n6)CC5)CC4)cc3C2=O)C(=O)N1 [GT-04953, 2-(2-((cyclopropylmethyl)amino)pyridin-4-yl)-N-(3-(difluoromethyl)-1-(1-((1-(2-(2,4-dioxotetrahydropyrimidin-1(2H)-yl)-1,3-dioxoisoindolin-5-yl)piperidin-4-yl)methyl)piperidin-4-yl)-1H-pyrazol-4-yl) oxazole-4-carboxamide] | – | – | – | – |
| A (0%≤substrate protein remaining %≤80%) | – | COc1cc2nn([C@H]3CC[C@H](CN4CC5CCC(C4)N5c4ccc5c(c4)C(=O)N(N4CCC(=O)NC4=O)C5=O)CC3)cc2cc1NC(=O)c1cccc(C(F)(F)F)n1 [GT-08652, N-(2-((1r,4r)-4-((8-(2-(2,4-dioxotetrahydropyrimidin-1(2H)-yl)-1,3-dioxoisoindolin-5-yl)-3,8-diazabicyclo[3.2.1]octan-3-yl)methyl)cyclohexyl)-6-methoxy-2H-indazol-5-yl)-6-(trifluoromethyl) picolinamide] | 15 to 20 | 15 to 20 | – | – |
| A (0%≤substrate protein remaining %≤80%) | – | COc1cc2nn([C@H]3CC[C@H](CN4C[C@H]5C[C@@H]4CN5c4ccc5c(c4)C(=O)N(N4CCC(=O)NC4=O)C5=O)CC3)cc2cc1NC(=O)c1cccc(C(F)(F)F)n1 [GT-08650, N-(2-((1R,4r)-4-(((1R,4R)-5-(2-(2,4-dioxotetrahydropyrimidin-1(2H)-yl)-1,3-dioxoisoindolin-5-yl)-2,5-diazabicyclo[2.2.1]heptan-2-yl)methyl)cyclohexyl)-6-methoxy-2H-indazol-5-yl)-6-(trifluoromethyl) picolinamide] | 20 to 40 | 15 to 20 | – | – |
| A (0%≤substrate protein remaining %≤80%) | – | COc1cc2nn(C3CCN(CC4CCN(c5cccc6c5C(=O)N(N5CCC(=O)NC5=O)C6=O)CC4)CC3)cc2cc1NC(=O)c1cccc(C(F)(F)F)n1 [GT-05817, N-(2-(1-((1-(2-(2,4-dioxotetrahydropyrimidin-1(2H)-yl)-1,3-dioxoisoindolin-4-yl)piperidin-4-yl)methyl)piperidin-4-yl)-6-methoxy-2H-indazol-5-yl)-6-(trifluoromethyl) picolinamide] | – | – | -5 to 0 | 50 to 60 |
| A (0%≤substrate protein remaining %≤80%) | – | O=C1CCN(N2C(=O)c3cccc(N4CCC(CN5CCN(c6ccc7c(c6)nc(NC(=O)c6cccc(C(F)(F)F)c6)n7[C@H]6CC[C@@H](CO)CC6)CC5)CC4)c3C2=O)C(=O)N1 [GT-05325, N-(5-(4-((1-(2-(2,4-dioxotetrahydropyrimidin-1(2H)-yl)-1,3-dioxoisoindolin-4-yl)piperidin-4-yl)methyl)piperazin-1-yl)-1-((1s,4s)-4-(hydroxymethyl)cyclohexyl)-1H-benzo[d]imidazol-2-yl)-3-(trifluoromethyl)benzamide] | – | – | -15 to -10 | 60 to 80 |
